From PubChem BioAssay (NCI)
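Protocol summary: plate cells (96-well), add compound at 5 concentrations, incubate 48 h, interpolate endpoints linearly. GI50 marks 50% less growth. Definition used: TGI = concentration required for complete inhibition of growth.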

Legend:
Test in all cases: NCI-60 cell line screen, 48 h
[1] = system: 786-0 renal
[2] = system: EKVX NSCLC
[3] = system: HCT-15 colon
[4] = system: LOX IMVI melanoma
[5] = system: NCI-H23 lung
[6] = system: NCI-H460 lung
[7] = system: OVCAR-5 ovarian
[8] = system: OVCAR-8 ovarian
[9] = system: SF-539 CNS
[10] = system: TK-10 renal
[11] = system: SK-OV-3 ovarian
[12] = system: BT-549 breast

| Compound | TGI [1] [µM] | TGI [2] [µM] | TGI [3] [µM] | TGI [4] [µM] | TGI [5] [µM] | TGI [6] [µM] | TGI [7] [µM] | TGI [8] [µM] | TGI [9] [µM] | TGI [10] [µM] | TGI [11] [µM] | GI50 [5] [µM] | GI50 [7] [µM] | GI50 [9] [µM] | TGI [12] [µM] |
| --- | --- | --- | --- | --- | --- | --- | --- | --- | --- | --- | --- | --- | --- | --- | --- |
| S=c1ncc2c([nH]1)C1c3ccccc3C2c2ccccc21 | > 100 | > 100 | > 100 | > 100 | > 100 | > 100 | > 100 | > 100 | > 100 | > 100 |  |  |  |  |  |
| O=C1CC(CC(=O)c2ccc(Br)cc2)C(=O)/C1=C(/O)c1ccc(Br)cc1 (stereo unspecified) | > 100 | > 100 | > 100 | > 100 | > 100 | > 100 | > 100 | > 100 | > 100 | > 100 | > 100 |  |  |  |  |
| CC(C)(Cl)C(Br)CCC(Br)(CCl)C(Cl)CBr (stereo unspecified) | > 10 | > 10 | > 10 | > 10 | > 10 | > 10 | > 10 | > 10 | > 10 | > 10 | > 10 |  |  |  |  |
| Cn1c2ccccc2c(=O)c2c(O)cc3c(c21)C=CC(C)(C)O3 |  | > 25 | > 25 | > 25 | > 25 | > 25 | > 25 |  | > 25 |  | > 25 |  |  |  |  |
| C/C(=N\NC(=O)c1ccccc1O)c1cccc(/C(C)=N/NC(=O)c2ccccc2O)n1.O=S(=O)([O-])[O-].[Fe+2] |  | > 100 | > 100 |  | > 100 | > 100 | > 100 | > 100 | > 100 | > 100 | > 100 | > 100 | > 100 | > 100 |  |
| CCOC(=O)c1c(NC(=S)Nc2ccc(Cl)cc2)sc2c1CCN(C)C2 | > 100 | > 100 | > 100 |  | > 100 | > 100 | > 100 | > 100 | > 100 | > 100 |  |  |  |  | > 100 |
| CCOc1ccccc1N=Nc1c(-c2ccccc2)nn(C(=O)CC(=O)Nc2cccc(C)c2)c1-c1ccccc1 | > 100 | > 100 |  | > 100 | > 100 | > 100 | > 100 | > 100 | > 100 | > 100 | > 100 |  |  |  |  |
| CC(=O)NC(NCCN)(c1ccccc1)c1ccccc1 | > 100 | > 100 | > 100 | > 100 | > 100 | > 100 | > 100 | > 100 | > 100 | > 100 | > 100 |  |  |  |  |
| C/C=C1\CN2CCc3c([nH]c4ccccc34)C2CC1CCO (stereo unspecified) | > 100 | > 100 | > 100 | > 100 | > 100 | > 100 | > 100 | > 100 | > 100 | > 100 | > 100 |  |  |  |  |
| Cc1cc(=O)oc2cc(OCC(O)COC(C)C)ccc12 (stereo unspecified) | > 100 | > 100 | > 100 | > 100 | > 100 | > 100 | > 100 | > 100 |  | > 100 | > 100 |  |  |  |  |
| Cc1cc2nc3ccccc3n2c2nc(N)ccc12 | > 100 | > 100 | 93.1 | > 100 | > 100 | 27.5 | > 100 | 80.4 | 51.6 | > 100 |  |  |  |  | > 100 |
| CCOP(=O)(OCC)C(NC(=O)C(C(F)(F)F)C(F)(F)F)c1ccccc1 (stereo unspecified) | > 100 | > 100 | > 100 | > 100 | > 100 | > 100 | > 100 | > 100 | > 100 | > 100 | > 100 |  |  |  |  |
| Cc1ccc(C)n2c1nc1ccccc12 | > 100 | > 100 | > 100 |  | > 100 | > 100 | > 100 | > 100 | > 100 | > 100 | > 100 |  |  |  | > 100 |
| COc1cc(C2(c3ncc[nH]3)SSSCC2O)ccc1O (stereo unspecified) |  | > 100 | > 100 | > 54.5 | > 100 | > 74.7 | > 100 | > 100 | > 100 |  | > 100 |  |  |  |  |
| CC(=O)OCC1OC(n2c3c(c(-c4ccc(Cl)cc4)c(C#N)c2=S)CCCC3)C(OC(C)=O)C(OC(C)=O)C1OC(C)=O (stereo unspecified) | > 100 |  | > 100 | > 100 | > 100 | > 100 | > 100 | > 100 | > 100 | > 100 | > 100 |  |  |  |  |
| Nc1ncnc2c1ncn2C1CCC(CP(=O)(O)O)C1 (stereo unspecified) | > 100 | > 100 | > 100 | > 100 | > 100 | > 100 | > 100 | > 100 | > 100 | > 100 | > 100 |  |  |  |  |
| C=CC1CN(C(=O)OCC)N(C(=O)OCC)C1CCc1ccccc1 (stereo unspecified) | > 100 | > 100 | > 100 | > 100 | > 100 | > 100 | > 100 | > 100 |  | > 100 | > 100 |  |  |  |  |
| COc1nc(N)c(NC(C)=O)c(=O)n1C |  | > 100 | > 100 | > 100 | > 100 | > 100 | > 100 | > 100 | > 100 | > 100 |  |  |  |  |  |
| O=C(N/N=C/c1cc(Br)cc(Br)c1[O-])c1ccccc1O.O=C(N/N=C/c1cc(Br)cc(Br)c1[O-])c1ccccc1O.[Zn+2] |  | 10.9 | 14.4 | 13.7 | 3.17 | 9.26 | 13.1 | 10.5 | 10.7 | 15 | 8.49 |  |  |  |  |
